Measured values from patent publication EP3860599B1, “(+)-ALPHA-DIHYDROTETRABENAZINE DOSAGE REGIMEN FOR TREATING MOVEMENT DISORDERS” (Adeptio Pharmaceuticals Limited, priority 2018, dated 2020).
Read-outs that look alike come from different tables or passages of the source.

Tests used:
Format in all cases: in vivo
[1] = Plasma concentrations after oral dosing (solution in apple juice) of human volunteers, Example 1A; details: for concentration at 0.5 h / concentration at 1 h / concentration at 1.5 h / concentration at 2 h / concentration at 3 h: human, plasma, po, 22.5 mg, 22.5 mg oral; for plasma concentrations: 7.5 mg oral; for concentration at 0.5 h / plasma concentrations: 0.5 h
Procedure: (+)-α-Dihydrotetrabenazine in defined amounts was administered by oral dosing (as a solution in apple juice) to six human volunteers. […] At 60 minutes after drug administration, PET scans were initiated and these were stopped at 120 minutes after drug administration. The experiment was carried out at dosages of 7.5 mg, 15 mg and 22.5 mg. […]

VMAT2 = molecular target: T1, VMAT2 (Homo sapiens, UniProt Q05940); assay: % VMAT2 blocking by PET scan after oral dosing of human volunteers, Example 1A
T1 construct: from tissue
T1 sequence (Q05940 whole entry): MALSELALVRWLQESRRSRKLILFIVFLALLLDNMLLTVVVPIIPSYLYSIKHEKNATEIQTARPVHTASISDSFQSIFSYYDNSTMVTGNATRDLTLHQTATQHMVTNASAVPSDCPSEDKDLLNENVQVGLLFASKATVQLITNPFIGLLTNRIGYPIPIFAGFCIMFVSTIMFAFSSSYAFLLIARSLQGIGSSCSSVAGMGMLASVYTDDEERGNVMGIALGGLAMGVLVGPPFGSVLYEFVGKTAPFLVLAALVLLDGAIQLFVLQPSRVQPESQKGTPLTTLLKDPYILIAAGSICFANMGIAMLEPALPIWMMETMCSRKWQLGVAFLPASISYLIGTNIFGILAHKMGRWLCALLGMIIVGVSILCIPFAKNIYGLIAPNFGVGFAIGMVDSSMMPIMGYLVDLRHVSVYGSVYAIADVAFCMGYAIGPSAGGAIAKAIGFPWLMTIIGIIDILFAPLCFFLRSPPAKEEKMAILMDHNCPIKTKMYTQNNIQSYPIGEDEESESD
Text: Complete blocking of VMAT2 is considered undesirable as this can lead to unwanted side effects, such as Parkinsonism. […] The levels of VMAT2 blocking can be determined by competitive binding studies using Positron Emission Tomography (PET). By co-administering a radioactive ligand with the compound of interest at various concentrations, the proportion of binding sites occupied can be determined (see for example, Matthews et al., "Positron emission tomography molecular imaging for drug development", Br. J. Clin. Pharmacol., 73:2, 175-186).
Blood samples were taken at 30, 60, 120 and 180 minutes after drug administration. At 60 minutes after drug administration, PET scans were initiated and these were stopped at 120 minutes after drug administration.
The experiment was carried out at dosages of 7.5 mg, 15 mg and 22.5 mg.

[2] = Plasma concentrations up to 7 hours after oral dosing of human volunteers, Example 1B; details: 7.5 mg
Procedure: Volunteers 1 and 2 were the same as volunteers 1 and 2 in Example 1A described above. […] In addition, in all volunteers PET scans were initiated at 6 hours after drug administration and these were stopped at 7 hours after drug administration. […]

[3] = po, Example 1B subject 1 (112 kg), 7.5 mg oral
[4] = po, Example 1B subject 2 (76 kg), 7.5 mg oral
[5] = po, Example 1B subject 3 (76 kg), 7.5 mg oral
[6] = po, Example 1B subject 4 (95 kg), 7.5 mg oral
[7] = po, Example 1B subject 5 (99 kg), 7.5 mg oral
[8] = po, Example 1B subject 6 (107 kg), 7.5 mg oral

COc1cc2c(cc1OC)[C@H]1C[C@@H](O)[C@H](CC(C)C)CN1CC2 [(+)-α-dihydrotetrabenazine, (R,R,R)-3-isobutyl-9,10-dimethyloxy-1,3,4,5,7,11b-hexahydro-2H-pyrido[2,1-a]isoquinolin-2-ol]
concentration at 0.5 h ([1]; subject 3 (129 kg)): 9.04 ng/mL | concentration at 1 h ([1]; subject 3 (129 kg)): 34.7 ng/mL | concentration at 1.5 h ([1]; subject 3 (129 kg)): 29.8 ng/mL | concentration at 2 h ([1]; subject 3 (129 kg)): 26.3 ng/mL | concentration at 3 h ([1]; subject 3 (129 kg)): 17.3 ng/mL | concentration at 0.5 h ([1]; subject 5 (91 kg)): 55.3 ng/mL | concentration at 1 h ([1]; subject 5 (91 kg)): 45.1 ng/mL | concentration at 1.5 h ([1]; subject 5 (91 kg)): 46.2 ng/mL | concentration at 2 h ([1]; subject 5 (91 kg)): 41.9 ng/mL | concentration at 3 h ([1]; subject 5 (91 kg)): 42.5 ng/mL | concentration at 0.5 h ([1]; subject 6 (68 kg)): 5.58 ng/mL | concentration at 1 h ([1]; subject 6 (68 kg)): 8.01 ng/mL | concentration at 1.5 h ([1]; subject 6 (68 kg)): 5.87 ng/mL | concentration at 2 h ([1]; subject 6 (68 kg)): 12.5 ng/mL | concentration at 3 h ([1]; subject 6 (68 kg)): 18.7 ng/mL | plasma concentrations ([1]; subject 1 (112 kg)): BLQ | plasma concentrations ([1]; subject 6 (68 kg)): BLQ | % VMAT2 blocking (VMAT2; even in heavier individuals, doses as low as 7.5 mg): at least 50% | % VMAT2 blocking (VMAT2; subject 1 (112 kg), 7.5 mg oral, PET scan 60-120 minutes after administration): 54% | % VMAT2 blocking (VMAT2; subject 1 (112 kg), 15 mg oral, PET scan 60-120 minutes after administration): 73% | % VMAT2 blocking (VMAT2; subject 1 (112 kg), 22.5 mg oral, PET scan 60-120 minutes after administration): 75% | % VMAT2 blocking (VMAT2; subject 2 (76 kg), 7.5 mg oral, PET scan 60-120 minutes after administration): 73% | % VMAT2 blocking (VMAT2; subject 2 (76 kg), 15 mg oral, PET scan 60-120 minutes after administration): 83% | % VMAT2 blocking (VMAT2; subject 2 (76 kg), 22.5 mg oral, PET scan 60-120 minutes after administration): 82% | % VMAT2 blocking (VMAT2; subject 3 (129 kg), 7.5 mg oral, PET scan 60-120 minutes after administration): 62% | % VMAT2 blocking (VMAT2; subject 3 (129 kg), 15 mg oral, PET scan 60-120 minutes after administration): 69% | % VMAT2 blocking (VMAT2; subject 3 (129 kg), 22.5 mg oral, PET scan 60-120 minutes after administration): 74% | % VMAT2 blocking (VMAT2; subject 4 (59 kg), 7.5 mg oral, PET scan 60-120 minutes after administration): 84% | % VMAT2 blocking (VMAT2; subject 4 (59 kg), 15 mg oral, PET scan 60-120 minutes after administration): 89% | % VMAT2 blocking (VMAT2; subject 5 (91 kg), 7.5 mg oral, PET scan 60-120 minutes after administration): 73% | % VMAT2 blocking (VMAT2; subject 5 (91 kg), 15 mg oral, PET scan 60-120 minutes after administration): 79% | % VMAT2 blocking (VMAT2; subject 5 (91 kg), 22.5 mg oral, PET scan 60-120 minutes after administration): 82% | % VMAT2 blocking (VMAT2; subject 6 (68 kg), 7.5 mg oral, PET scan 60-120 minutes after administration): 60% | % VMAT2 blocking (VMAT2; subject 6 (68 kg), 15 mg oral, PET scan 60-120 minutes after administration): 76% | % VMAT2 blocking (VMAT2; subject 6 (68 kg), 22.5 mg oral, PET scan 60-120 minutes after administration): 62% | concentration at 6 h ([2]; oral, after 6 hours following administration of 7.5mg, read-out: blood plasma concentrations): < 15 ng/mL | concentration at 2 h [2, 3]: 8.7 ng/mL | concentration at 4 h [2, 3]: 6.01 ng/mL | concentration at 6 h ([2]; po, Example 1B subject 1 (112 kg), 7.5 mg oral, 6 h, read-out: plasma concentrations): 4.54 ng/mL | concentration at 7 h [2, 3]: 3.65 ng/mL | concentration at 2 h [2, 4]: 11.7 ng/mL | concentration at 4 h [2, 4]: 17.5 ng/mL | concentration at 6 h ([2]; po, Example 1B subject 2 (76 kg), 7.5 mg oral, 6 h, read-out: plasma concentrations): 13.4 ng/mL | concentration at 7 h [2, 4]: 11.6 ng/mL | concentration at 2 h [2, 5]: 12.8 ng/mL | concentration at 4 h [2, 5]: 7.92 ng/mL | concentration at 6 h ([2]; po, Example 1B subject 3 (76 kg), 7.5 mg oral, 6 h, read-out: plasma concentrations): 5.57 ng/mL | concentration at 7 h [2, 5]: 4.84 ng/mL | concentration at 1 h [2, 6]: 21.4 ng/mL | concentration at 2 h [2, 6]: 13.9 ng/mL | concentration at 3 h [2, 6]: 10.6 ng/mL | concentration at 4 h [2, 6]: 7.81 ng/mL | concentration at 5 h [2, 6]: 6.59 ng/mL | concentration at 6 h ([2]; po, Example 1B subject 4 (95 kg), 7.5 mg oral, 6 h, read-out: plasma concentrations): 4.92 ng/mL | concentration at 7 h [2, 6]: 4.91 ng/mL | concentration at 1 h [2, 7]: 5.64 ng/mL | concentration at 2 h [2, 7]: 7.59 ng/mL | concentration at 3 h [2, 7]: 5.84 ng/mL | concentration at 4 h [2, 7]: 4.58 ng/mL | concentration at 5 h [2, 7]: 3.66 ng/mL | concentration at 6 h ([2]; po, Example 1B subject 5 (99 kg), 7.5 mg oral, 6 h, read-out: plasma concentrations): 3.35 ng/mL | concentration at 7 h [2, 7]: 2.47 ng/mL | concentration at 1 h [2, 8]: 4.86 ng/mL | concentration at 2 h [2, 8]: 6.3 ng/mL | concentration at 3 h [2, 8]: 6.69 ng/mL | concentration at 4 h [2, 8]: 5.61 ng/mL | concentration at 5 h [2, 8]: 5.19 ng/mL | concentration at 6 h ([2]; po, Example 1B subject 6 (107 kg), 7.5 mg oral, 6 h, read-out: plasma concentrations): 4.44 ng/mL | concentration at 7 h [2, 8]: 3.36 ng/mL
